{"source": "patent US20220347175A1", "about": "“PYRIDAZINONE DERIVATIVE” (Sumitomo Dainippon Pharma Co., Ltd., priority 2018, published 2022)", "molecular_target": "T1, human Nav1.1 (Homo sapiens, UniProt P35498)", "T1 construct": "host or cells: HEK293", "assay": "Amplification of Nav1.1-derived voltage-dependent sodium current (Nav1.1 current), cell line stably expressing human Nav1.1, automated patch clamp", "format": "cell-based", "procedure": "Test 1: Evaluation of the Amplification of Nav1.1-Derived Voltage-Dependent Sodium Current (Nav1.1 Current) by Using a Cell Line Stably Expressing Human Nav1.1\n(1) Preparation of Test Compounds\nTest compounds were prepared by dissolving in DMSO at 200 times of the concentration at evaluation, and diluting the obtained solution to twice the concentration of evaluation with an extracellular fluid (135 mmol/L NaCl, 4 mmol/L KCl, 1 mmol/L MgCl2, 5 mmol/L CaCl2, 5 mmol/L Glucose, 10 mmol/L HEPES).\n(2) Induction and Measurement of Nav1.1 Current\nA HEK293 cell line stably expressing human Nav1.1 (cat #CYL3009, Millipore, USA, Human Embryonic Kidney 293) was purchased, and used in the present test. Nav1.1 current was induced by stimulating Ramp wave voltage. Detection of current which accompanied with the stimulation of voltage was carried out by a patch-clamp voltage-clamp method using HTS automated patch clamp system (SynchroPatch 768PE, Nanion Technologies GmbH, Germany). Only cells with more than 500 pA of voltage-dependent sodium channel current were used for the evaluation of the activity of compounds on Nav1.1 current because there was the possibility that currents derived from endogenous voltage-dependent sodium channels accounted for large proportion in cells with less than 500 pA of voltage-dependent sodium channel current which was induced by stimulating Ramp wave voltage.\n(3) Pharmacologic Effect on Nav1.1 Current\nThe effect of test compounds on the amplification of Nav1.1-derived voltage-dependent sodium current was evaluated by using a cell line stably expressing human Nav1.1 and HTS automated patch clamp system. In other words, test compounds were added in an extracellular fluid containing 1% DMSO, and evaluated as a change of the peak value of Nav1.1 current and the area under the curve (AUC).\n(4) Method for Pharmacological Evaluation\nThe Nav1.1 current amplification rates of test compounds were calculated by the following formula:\nNav1.1 current amplification rate (%)=100×[the peak value of Nav1.1 current or the area under the curve after the addition of test compounds]/[the peak value of Nav1.1 current or the area under the curve before the addition of test compounds]−100", "key": {"[1]": {"conditions": "concentration of each compound 1 μmol/L (Test Result 6)"}, "[2]": {"conditions": "compound 50 μmol/L, HEK293 stably expressing human Nav1.1"}, "[3]": {"conditions": "10 μmol/L compound (Test Result 5)"}}}
{"smiles": "COC1CCN(Cc2cccc3c2CCN3C(=O)Cn2nc(C3=CCC(C)CC3)ccc2=O)C1", "note": "(mixture of isomers) [Example 272]", "values": [{"measurement": "Nav1.1 current amplification rate (%)", "setting": "[1]", "value": 127, "unit": "%"}]}
{"smiles": "COC1CCN(Cc2cccc3c2CCN3C(=O)Cn2nc(C3=CCC(C)CC3)ccc2=O)C1", "note": "(mixture of isomers) [Example 273]", "values": [{"measurement": "Nav1.1 current amplification rate (%)", "setting": "[1]", "value": 77, "unit": "%"}]}
{"smiles": "CC1CC=C(c2ccc(=O)n(CC(=O)NC3CCN(c4ccccc4)C3)n2)CC1", "note": "(mixture of isomers) [Example 369]", "values": [{"measurement": "Nav1.1 current amplification rate (%)", "setting": "[2]", "value": 10, "unit": "%"}]}
{"smiles": "CC1CC=C(c2ccc(=O)n(CC(=O)N3CCC(c4cccnc4)CC3)n2)CC1", "note": "(racemic) [Example 262]", "values": [{"measurement": "Nav1.1 current amplification rate (%)", "setting": "[3]", "value": 124, "unit": "%"}]}
{"smiles": "COC1CN(Cc2cccc3c2CCN3C(=O)Cn2nc(C3=CCC(C)CC3)ccc2=O)C1", "note": "(racemic) [Example 274]", "values": [{"measurement": "Nav1.1 current amplification rate (%)", "setting": "[1]", "value": 60, "unit": "%"}]}
{"smiles": "COCCN(C)Cc1cccc2c1CCN2C(=O)Cn1nc(C2=CCC(C)CC2)ccc1=O", "note": "(racemic) [Example 275]", "values": [{"measurement": "Nav1.1 current amplification rate (%)", "setting": "[1]", "value": 46, "unit": "%"}]}
{"smiles": "CC1CC=C(c2ccc(=O)n(CC(=O)N3CCc4c3ccnc4C3=CCN(C(=O)OC(C)(C)C)C3)n2)CC1", "note": "(racemic) [Example 280]", "values": [{"measurement": "Nav1.1 current amplification rate (%)", "setting": "[1]", "value": 10, "unit": "%"}]}
{"smiles": "CC1CC=C(c2ccc(=O)n(CC(=O)N3CCc4c3ccnc4C3=CCNC3)n2)CC1", "note": "(racemic) [Example 281]", "values": [{"measurement": "Nav1.1 current amplification rate (%)", "setting": "[3]", "value": 40, "unit": "%"}]}
{"smiles": "CC1CC=C(c2ccc(=O)n(CC(=O)N3CCc4c(CN5CCCCC5)cccc43)n2)CC1", "note": "(racemic) [Example 282]", "values": [{"measurement": "Nav1.1 current amplification rate (%)", "setting": "[1]", "value": 26, "unit": "%"}]}
{"smiles": "CC1CC=C(c2ccc(=O)n(CC(=O)N3CCc4c3ccnc4C3=CCN(C)C3)n2)CC1", "note": "(racemic) [Example 283]", "values": [{"measurement": "Nav1.1 current amplification rate (%)", "setting": "[1]", "value": 15, "unit": "%"}]}
{"smiles": "CC1CC=C(c2ccc(=O)n(CC(=O)N3CCc4c3ccnc4C3=CCOC3)n2)CC1", "note": "(racemic) [Example 284]", "values": [{"measurement": "Nav1.1 current amplification rate (%)", "setting": "[1]", "value": 91, "unit": "%"}]}
{"smiles": "CC1CC=C(c2ccc(=O)n(CC(=O)N3CCc4c3ccnc4-c3cn[nH]c3)n2)CC1", "note": "(racemic) [Example 285]", "values": [{"measurement": "Nav1.1 current amplification rate (%)", "setting": "[1]", "value": 113, "unit": "%"}]}
{"smiles": "Cc1cn(Cc2cccc3c2CCN3C(=O)Cn2nc(C3=CCC(C)CC3)ccc2=O)cn1", "note": "(racemic) [Example 288]", "values": [{"measurement": "Nav1.1 current amplification rate (%)", "setting": "[1]", "value": 115, "unit": "%"}]}
{"smiles": "CC1CC=C(c2ccc(=O)n(CC(=O)N3CCc4nc(-c5cn[nH]c5)ccc43)n2)CC1", "note": "(racemic) [Example 289]", "values": [{"measurement": "Nav1.1 current amplification rate (%)", "setting": "[2]", "value": 51, "unit": "%"}]}
{"smiles": "CC1CC=C(c2ccc(=O)n(CC(=O)N3CCc4c(-c5cc[nH]n5)ccnc43)n2)CC1", "note": "(racemic) [Example 291]", "values": [{"measurement": "Nav1.1 current amplification rate (%)", "setting": "[2]", "value": 212, "unit": "%"}]}
{"smiles": "CC1CC=C(c2ccc(=O)n(CC(=O)N3CCc4c(-c5cc[nH]n5)ccc(F)c43)n2)CC1", "note": "(racemic) [Example 292]", "values": [{"measurement": "Nav1.1 current amplification rate (%)", "setting": "[1]", "value": 46, "unit": "%"}]}
{"smiles": "CC1CC=C(c2ccc(=O)n(CC(=O)N3CCc4c(C=C5CCNCC5)cccc43)n2)CC1", "note": "(racemic) [Example 293]", "values": [{"measurement": "Nav1.1 current amplification rate (%)", "setting": "[2]", "value": 55, "unit": "%"}]}
{"smiles": "CC1CC=C(c2ccc(=O)n(CC(=O)N3CCc4c3ccc(F)c4-c3ccnnc3)n2)CC1", "note": "(racemic) [Example 295]", "values": [{"measurement": "Nav1.1 current amplification rate (%)", "setting": "[1]", "value": 95, "unit": "%"}]}
{"smiles": "CC1CC=C(c2ccc(=O)n(CC(=O)N3CCc4c3ccnc4C3=CCOCC3)n2)CC1", "note": "(racemic) [Example 296]", "values": [{"measurement": "Nav1.1 current amplification rate (%)", "setting": "[1]", "value": 87, "unit": "%"}]}
{"smiles": "CC1CC=C(c2ccc(=O)n(CC(=O)N3CCc4c3ccnc4-c3cccnc3)n2)CC1", "note": "(racemic) [Example 297]", "values": [{"measurement": "Nav1.1 current amplification rate (%)", "setting": "[1]", "value": 151, "unit": "%"}]}
{"smiles": "CC1CC=C(c2ccc(=O)n(CC(=O)N3CCc4cc(-c5cccnc5)ccc43)n2)CC1", "note": "(racemic) [Example 298]", "values": [{"measurement": "Nav1.1 current amplification rate (%)", "setting": "[1]", "value": 51, "unit": "%"}]}
{"smiles": "CC1CC=C(c2ccc(=O)n(CC(=O)N3CCc4c(C5CN(C(C)C)C5)cccc43)n2)CC1", "note": "(racemic) [Example 304]", "values": [{"measurement": "Nav1.1 current amplification rate (%)", "setting": "[3]", "value": 167, "unit": "%"}]}
{"smiles": "COCCCN1CC2(CCN(C(=O)Cn3nc(C4=CCC(C)CC4)ccc3=O)C2)C1", "note": "(racemic) [Example 308]", "values": [{"measurement": "Nav1.1 current amplification rate (%)", "setting": "[2]", "value": 9, "unit": "%"}]}
{"smiles": "COC1CCN(c2nccc3c2CCN3C(=O)Cn2nc(C3=CCC(C)CC3)ccc2=O)CC1", "note": "(racemic) [Example 309]", "values": [{"measurement": "Nav1.1 current amplification rate (%)", "setting": "[1]", "value": 71, "unit": "%"}]}
{"smiles": "CC(=O)N1CC=C(c2nccc3c2CCN3C(=O)Cn2nc(C3=CCC(C)CC3)ccc2=O)C1", "note": "(racemic) [Example 310]", "values": [{"measurement": "Nav1.1 current amplification rate (%)", "setting": "[1]", "value": 87, "unit": "%"}]}
